According to patent US20100298285A1, “Biclycloheteroaryl Compounds as P2x7 Modulators and Uses Thereof” (priority 2006, published 2010):

The compounds below were run on IL-1β release, THP-1 cells (assay: IL-1β release assay in differentiated THP-1 cells stimulated with BzATP (Example 9)). Conditions: Homo sapiens; 0.3 μM compound ("+" symbols); differentiated THP-1 cells, 250 uM BzATP; read-out: IL-1β% Inhib. @ 0.3 or 0.1 μM.
Format: cell-based
Protocol: THP-1 cells (ATCC Cat # 285-IF-100) are plated in 96 well plates at a concentration of 200,000 cells per well and allowed to differentiate in RPMI-1640 media (ATCC Cat # 30-2001) containing 10% FBS, 100 IU/mL penicillin, 100 ug/mL streptomycin, 100 ng/mL LPS and 100 ng/mL IFN-γ for 16 hours. Following differentiation, the cells are treated for an additional 2 hours in RPMI-1640 media containing 100 IU/mL penicillin, 100 ug/mL streptomycin and fresh LPS at 100 ng/mL. The cells are then pretreated for 30 minutes with the compound of interest at the appropriate concentration in RPMI media containing 100 IU/mL penicillin, 100 ug/mL streptomycin. Following the pretreatment 2′,3′-O-(4-benzoylbenzoyl)-adenosine 5′-triphosphate (Sigma Aldrich Cat # B6396) is added to a final concentration of 250 uM and the cells are incubated for an additional 45 minutes. 30 uL of cell supernatant is then collected and IL-1β levels determined via ELISA (R&D systems Cat. # HSLB50) according to manufacturer's recommendations using the Tecan Safire plate reader. Background adjusted IL-1β levels of drug treated and non-treated cells are used to calculate the percent inhibition.
The following compounds have been or can be prepared according to the synthetic methods described above. For the purpose of Table 1 below, activity of each compound, which can be determined using the IL-1β assay method described in Example 9, is expressed as follows: […]
The compounds set forth in Table 1 were tested for activity in a cellular model as described herein. Specifically, cells were pretreated with differing amounts of the compound under test and released IL-1β determined as in Example 9, above. Measurements were made and IC50 values, presented in Table 2, below, were determined by fitting the data to a four parameter logistic equation using GraphPad Prism software (GraphPad Software, Inc). The equation may be expressed by the following formula:
Y=Bottom+(Top−Bottom)/(1+10̂((Log EC50−X)*HillSlope))
Where X is the logarithm of concentration, Y is the response and Y starts at Bottom and goes to Top with a sigmoid shape.
In the case of `O=C(Cc1ccc(C(F)(F)F)c(F)c1)Nc1c(Cl)ccc2c1CCN(C(=O)c1ccccc1C(F)(F)F)C2` [Compound 3106], the inhibition at 0.3 µM is reported as 26 to 50%.
With `Cc1ccc(F)c(C(=O)N2CCc3c(ccc(Cl)c3NC(=O)Cc3ccc(C(F)(F)F)c(F)c3)C2)c1Cl` [Compound 3107] the inhibition at 0.3 µM was 0 to 25%.
`Cc1nn(-c2ccccc2)nc1C(=O)N1CCc2c(ccc(Cl)c2NC(=O)Cc2ccc(C(F)(F)F)c(F)c2)C1` [Compound 3108] showed an inhibition at 0.3 µM of 0 to 25%.
With `O=C(Cc1ccc(C(F)(F)F)c(F)c1)Nc1c(Cl)ccc2c1CCN(C(=O)C1COc3ccccc3O1)C2` (stereo not shown) [Compound 3110] the inhibition at 0.3 µM was 0 to 25%.
Compound `Cc1ccccc1C(=O)N1CCc2c(ccc(Cl)c2NC(=O)Cc2ccc(C(F)(F)F)c(F)c2)C1` [Compound 3112] has an inhibition at 0.3 µM of 0 to 25%.
`O=C(Cc1ccc(C(F)(F)F)c(F)c1)Nc1c(Cl)ccc2c1CCN(C(=O)c1cc(F)ccc1F)C2` [Compound 3113] was tested, and the inhibition at 0.3 µM was 0 to 25%.
For `O=C(Cc1ccc(C(F)(F)F)c(F)c1)Nc1c(Cl)ccc2c1CCN(C(=O)c1ccccc1F)C2` [Compound 3114], the inhibition at 0.3 µM was 0 to 25%.
For `O=C(Cc1ccc(C(F)(F)F)c(F)c1)Nc1c(Cl)ccc2c1CCN(C(=O)c1cccc(Cl)c1Cl)C2` [Compound 3115], the inhibition at 0.3 µM was 0 to 25%.
Compound `Cc1cc(C(=O)N2CCc3c(ccc(Cl)c3NC(=O)Cc3ccc(C(F)(F)F)c(F)c3)C2)no1` [Compound 3116] has an inhibition at 0.3 µM of 0 to 25%.
For `O=C(Cc1ccc(C(F)(F)F)c(F)c1)Nc1c(Cl)ccc2c1CCN(C(=O)/C=C/c1ccccc1)C2` [Compound 3118], the inhibition at 0.3 µM was 26 to 50%.
`Cc1ccc(C(=O)N2CCc3c(ccc(Cl)c3NC(=O)Cc3ccc(C(F)(F)F)c(F)c3)C2)cc1` [Compound 3119] was tested, and the inhibition at 0.3 µM was 26 to 50%.
With `COc1ccccc1C(=O)N1CCc2c(ccc(Cl)c2NC(=O)Cc2ccc(C(F)(F)F)c(F)c2)C1` [Compound 3120] the inhibition at 0.3 µM was 0 to 25%.
With `O=C(Cc1ccc(C(F)(F)F)c(F)c1)Nc1c(Cl)ccc2c1CCN(C(=O)c1cccc3ccccc13)C2` [Compound 3121] the inhibition at 0.3 µM was 0 to 25%.
`CC(=O)N1CCC(C(=O)N2CCc3c(ccc(Cl)c3NC(=O)Cc3ccc(C(F)(F)F)c(F)c3)C2)CC1` [Compound 3122] showed an inhibition at 0.3 µM of 0 to 25%.
For `CCCC(=O)N1CCc2c(ccc(Cl)c2NC(=O)Cc2ccc(C(F)(F)F)c(F)c2)C1` [Compound 3123], the inhibition at 0.3 µM was 0 to 25%.
`CC(C)(C)c1ccc(C(=O)N2CCc3c(ccc(Cl)c3NC(=O)Cc3ccc(C(F)(F)F)c(F)c3)C2)cc1` [Compound 3124] was tested, and the inhibition at 0.3 µM was 0 to 25%.
`O=C(Cc1ccc(C(F)(F)F)c(F)c1)Nc1c(Cl)ccc2c1CCN(C(=O)c1ccc3ccccc3n1)C2` [Compound 3125] showed an inhibition at 0.3 µM of 26 to 50%.
Work on `O=C(Cc1ccc(C(F)(F)F)c(F)c1)Nc1c(Cl)ccc2c1CCN(C(=O)c1ccncc1)C2` [Compound 3126] yielded an inhibition at 0.3 µM of 0 to 25%.
In the case of `CC(=O)Nc1ccc(C(=O)N2CCc3c(ccc(Cl)c3NC(=O)Cc3ccc(C(F)(F)F)c(F)c3)C2)cc1` [Compound 3128], the inhibition at 0.3 µM is reported as 0 to 25%.
Compound `COc1ccc(C(=O)N2CCc3c(ccc(Cl)c3NC(=O)Cc3ccc(C(F)(F)F)c(F)c3)C2)cc1OC` [Compound 3129] has an inhibition at 0.3 µM of 0 to 25%.
With `O=C(Cc1ccc(C(F)(F)F)c(F)c1)Nc1c(Cl)ccc2c1CCN(C(=O)CCC1CCCCC1)C2` [Compound 3130] the inhibition at 0.3 µM was 51 to 75%.
In the case of `O=C(Cc1ccc(C(F)(F)F)c(F)c1)Nc1c(Cl)ccc2c1CCN(C(=O)c1cc(Cl)cc(Cl)c1)C2` [Compound 3131], the inhibition at 0.3 µM is reported as 0 to 25%.
`O=C(Cc1ccc(C(F)(F)F)c(F)c1)Nc1c(Cl)ccc2c1CCN(C(=O)c1ccc(C(F)(F)F)nc1)C2` [Compound 3132] was tested, and the inhibition at 0.3 µM was 0 to 25%.
In the case of `O=C(Cc1ccc(C(F)(F)F)c(F)c1)Nc1c(Cl)ccc2c1CCN(C(=O)c1ccc(Oc3ccccc3)nc1)C2` [Compound 3133], the inhibition at 0.3 µM is reported as 0 to 25%.
`O=C(Cc1ccc(C(F)(F)F)c(F)c1)Nc1c(Cl)ccc2c1CCN(C(=O)c1nccs1)C2` [Compound 3134] was tested, and the inhibition at 0.3 µM was 26 to 50%.
For `CC(Oc1ccccc1)C(=O)N1CCc2c(ccc(Cl)c2NC(=O)Cc2ccc(C(F)(F)F)c(F)c2)C1` (stereo not shown) [Compound 3135], the inhibition at 0.3 µM was 26 to 50%.
For `CC(=O)N1CCc2c(ccc(Cl)c2NC(=O)Cc2cccc(C(F)(F)F)c2F)C1` [Compound 3136], the inhibition at 0.3 µM was 0 to 25%.
For `O=C(Cc1cccc(C(F)(F)F)c1F)Nc1c(Cl)ccc2c1CCN(C(=O)c1ccccc1)C2` [Compound 3137], the inhibition at 0.3 µM was 0 to 25%.
For `CCC(=O)N1CCc2c(ccc(Cl)c2NC(=O)Cc2cccc(C(F)(F)F)c2F)C1` [Compound 3138], the inhibition at 0.3 µM was 0 to 25%.
For `O=C(Cc1cccc(C(F)(F)F)c1F)Nc1c(Cl)ccc2c1CCN(C(=O)c1ccc(Cl)cc1)C2` [Compound 3139], the inhibition at 0.3 µM was 0 to 25%.
With `Cc1cccc(C(=O)N2CCc3c(ccc(Cl)c3NC(=O)Cc3cccc(C(F)(F)F)c3F)C2)c1` [Compound 3140] the inhibition at 0.3 µM was 0 to 25%.
Compound `COc1ccc(C(=O)N2CCc3c(ccc(Cl)c3NC(=O)Cc3cccc(C(F)(F)F)c3F)C2)cc1` [Compound 3141] has an inhibition at 0.3 µM of 0 to 25%.
For `O=C(Cc1cccc(C(F)(F)F)c1F)Nc1c(Cl)ccc2c1CCN(C(=O)c1ccc(-c3ccccc3)cc1)C2` [Compound 3142], the inhibition at 0.3 µM was 0 to 25%.
`O=C(Cc1cccc(C(F)(F)F)c1F)Nc1c(Cl)ccc2c1CCN(C(=O)c1cc(F)c(F)cc1F)C2` [Compound 3143] was tested, and the inhibition at 0.3 µM was 0 to 25%.
Compound `O=C(Cc1cccc(C(F)(F)F)c1F)Nc1c(Cl)ccc2c1CCN(C(=O)C1CCCC1)C2` [Compound 3144] has an inhibition at 0.3 µM of 0 to 25%.
`COCC(=O)N1CCc2c(ccc(Cl)c2NC(=O)Cc2cccc(C(F)(F)F)c2F)C1` [Compound 3145] gave an inhibition at 0.3 µM of 51 to 75%.
Work on `CCCc1ccc(C(=O)N2CCc3c(ccc(Cl)c3NC(=O)Cc3cccc(C(F)(F)F)c3F)C2)cc1` [Compound 3146] yielded an inhibition at 0.3 µM of 26 to 50%.
In the case of `O=C(Cc1cccc(C(F)(F)F)c1F)Nc1c(Cl)ccc2c1CCN(C(=O)C1CCCCC1)C2` [Compound 3147], the inhibition at 0.3 µM is reported as 0 to 25%.
Work on `O=C(Cc1cccc(C(F)(F)F)c1F)Nc1c(Cl)ccc2c1CCN(C(=O)c1ccc(Cl)c(Cl)c1)C2` [Compound 3148] yielded an inhibition at 0.3 µM of 0 to 25%.
`COc1cc(OC)cc(C(=O)N2CCc3c(ccc(Cl)c3NC(=O)Cc3cccc(C(F)(F)F)c3F)C2)c1` [Compound 3149] was tested, and the inhibition at 0.3 µM was 26 to 50%.
In the case of `CC(C)C(=O)N1CCc2c(ccc(Cl)c2NC(=O)Cc2cccc(C(F)(F)F)c2F)C1` [Compound 3150], the inhibition at 0.3 µM is reported as 0 to 25%.
Work on `O=C(Cc1cccc(C(F)(F)F)c1F)Nc1c(Cl)ccc2c1CCN(C(=O)CCc1ccccc1)C2` [Compound 3151] yielded an inhibition at 0.3 µM of 26 to 50%.
`O=C(Cc1cccc(C(F)(F)F)c1F)Nc1c(Cl)ccc2c1CCN(C(=O)COc1ccccc1)C2` [Compound 3152] showed an inhibition at 0.3 µM of 0 to 25%.
In the case of `COc1cccc(C(=O)N2CCc3c(ccc(Cl)c3NC(=O)Cc3cccc(C(F)(F)F)c3F)C2)c1` [Compound 3153], the inhibition at 0.3 µM is reported as 0 to 25%.
For `O=C(Cc1cccc(C(F)(F)F)c1F)Nc1c(Cl)ccc2c1CCN(C(=O)c1ccc(F)cc1)C2` [Compound 3154], the inhibition at 0.3 µM was 0 to 25%.
`CC(C)(C)C(=O)N1CCc2c(ccc(Cl)c2NC(=O)Cc2cccc(C(F)(F)F)c2F)C1` [Compound 3155] showed an inhibition at 0.3 µM of 0 to 25%.
With `O=C(Cc1cccc(C(F)(F)F)c1F)Nc1c(Cl)ccc2c1CCN(C(=O)c1cccc(Cl)c1)C2` [Compound 3156] the inhibition at 0.3 µM was 0 to 25%.
`CCC(C(=O)N1CCc2c(ccc(Cl)c2NC(=O)Cc2cccc(C(F)(F)F)c2F)C1)c1ccccc1` (stereo not shown) [Compound 3157] showed an inhibition at 0.3 µM of 0 to 25%.
For `CC(C)CC(=O)N1CCc2c(ccc(Cl)c2NC(=O)Cc2cccc(C(F)(F)F)c2F)C1` [Compound 3158], the inhibition at 0.3 µM was 0 to 25%.
For `CN(C)c1ccc(C(=O)N2CCc3c(ccc(Cl)c3NC(=O)Cc3cccc(C(F)(F)F)c3F)C2)cc1` [Compound 3159], the inhibition at 0.3 µM was 0 to 25%.
With `O=C(Cc1cccc(C(F)(F)F)c1F)Nc1c(Cl)ccc2c1CCN(C(=O)COCc1ccccc1)C2` [Compound 3160] the inhibition at 0.3 µM was 0 to 25%.
With `N#Cc1ccc(C(=O)N2CCc3c(ccc(Cl)c3NC(=O)Cc3cccc(C(F)(F)F)c3F)C2)cc1` [Compound 3161] the inhibition at 0.3 µM was 0 to 25%.
`O=C(Cc1cccc(C(F)(F)F)c1F)Nc1c(Cl)ccc2c1CCN(C(=O)C1CC1c1ccccc1)C2` (stereo not shown) [Compound 3162] showed an inhibition at 0.3 µM of 26 to 50%.
For `O=C(Cc1cccc(C(F)(F)F)c1F)Nc1c(Cl)ccc2c1CCN(C(=O)c1ccc(Cl)cc1Cl)C2` [Compound 3163], the inhibition at 0.3 µM was 26 to 50%.
With `O=C(Cc1cccc(C(F)(F)F)c1F)Nc1c(Cl)ccc2c1CCN(C(=O)C1CCC1)C2` [Compound 3164] the inhibition at 0.3 µM was 0 to 25%.
Work on `O=C(Cc1cccc(C(F)(F)F)c1F)Nc1c(Cl)ccc2c1CCN(C(=O)C1CC1)C2` [Compound 3165] yielded an inhibition at 0.3 µM of 0 to 25%.
`O=C(Cc1cccc(C(F)(F)F)c1F)Nc1c(Cl)ccc2c1CCN(C(=O)CC1CCCC1)C2` [Compound 3166] gave an inhibition at 0.3 µM of 0 to 25%.
Compound `O=C(Cc1cccc(C(F)(F)F)c1F)Nc1c(Cl)ccc2c1CCN(C(=O)COc1ccc(Cl)cc1)C2` [Compound 3167] has an inhibition at 0.3 µM of 26 to 50%.
